Assay results published in patent publication US20250215071A1, “Novel Mcl-1 inhibitor and combination of Mcl-1 and a BH3 mimetic, such as a Bcl-2 inhibitor” (NETRIS PHARMA, priority 2022, published 2025).

B1: NP137: humanized anti-netrin-1 monoclonal antibody, VH SEQ ID NO: 22, VL SEQ ID NO: 16, human IgG1 (antibody, V domains shown)
VH: QVQLQQSGPGLVKPSQTLSLTCAISGYTFTSYNMHWVRQATGQGLEWMGAIYPGNGDTSYNQKFKGRLTISKDTSKNQVVLTMTNMDPVDTATYYCARGGTGFAYWGQG
VL: DIQMTQSPSSLSASVGDRVTITCKASQSVSNDVAWYQQKPGQAPRLLIYYASNRYTGIPPRFSGSGYGTDFTLTINNIESEDAAYYFCQQDYSSPWTFGQG
modifications: human IgG1 constant region; humanized variant; MISC_FEATURE - CDR according to IGMT

Legend:
Mcl-1 = Mcl-1 protein levels by western blot in HeLa UNC5B cells; format: cell-based, Human; details: 2 μg/mL Dox
Procedure: FIG. 4. UNC5B triggers proteasomal degradation of Mcl-1. (A,B): UNC5B-induced apoptosis requires proteasome activity. Stable Hela cells inducible for UNC5B (HeLa UNC5B) were treated with doxycycline (Dox) at 2 μg/mL, in combination with the indicated doses of the proteasome inhibitors MG132 and bortezomib (BTZ). 18 hours after treatment, apoptosis was measured by DNA fragmentation (A) and caspase-3 activity (B) (n=3-4, **** p<0.0001, ordinary two-way ANOVA with Tukey's multiple comparisons test). Values are given as means±SEM Treatment with proteasome inhibitors was sufficient to strongly reduce apoptosis induction upon UNC5B over-expression. (C): UNC5B triggers Mcl-1 degradation. HeLa UNC5B cells were treated with 2 μg/mL of Dox, in combination with bortezomib (BTZ, 1 μM) and the pan-caspase inhibitor Q-VD-OPh (QVD, 10 µM) inhibitors. 16 hours after treatment, cells were lysed by scraping and sonication in SDS-containing buffer. Protein levels of Mcl-1, Bcl-2 and Bcl-XL, as well as of UNC5B and B-actin, used as housekeeping gene, were evaluated by western blot. […] UNC5B over-expression specifically promoted Mcl-1 protein decrease. […] (D): Mcl-1 degradation induced by UNC5B requires COMMD2/CRL3 complex. HeLa UNC5B cells were transfected with scramble (siCTRL), COMMD2 (siCOMMD2) or RBX1 (siRBX1) siRNAs. […] Protein levels of Mcl-1, UNC5B and Ku80, used as housekeeping protein, were evaluated by western blot. […] Stable HeLa UNC5B cells, constitutively expressing Mcl-1 or empty vector, were treated with doxycycline and apoptosis was evaluated 18 hours later by DNA fragmentation (n=3, ^nsp>0.05, ordinary two-way ANOVA with Sidak's multiple comparisons test). […] Stable HeLa UNC5B cells, constitutively expressing Mcl-1, Bcl-2 or Bcl-XL were treated with Dox and protein levels were evaluated as described in (C). […] 18 hours later, protein levels of Mcl-1, UNC5B and β-actin, used as housekeeping gene, were evaluated by western blot. […] Cells were harvested at the indicated times after CHX treatment, and protein levels were assessed by western blot. […]

caspase-3 = assay: UNC5B-induced caspase-3 activity in HeLa UNC5B cells; format: cell-based, Human; details: doxycycline 2 μg/mL; 18 hours
Procedure: Caspase-3 and -9 activity assays were performed as described previously (Paradisi et al., 2013; Paradisi et al., 2009). Briefly, HCT116 and HeLa cells were seeded and treated as for DNA fragmentation assay. Cells were then collected and caspase-3/caspase 9 activity assays were performed using the Caspase-3/Caspase-9 Fluorometric Assay Kit (BioVision, Milpitas, CA, USA), according to the manufacturer's instructions. Caspase activity (activity/min/mg of protein) was calculated from a 1 h kinetic cycle reading on a spectrofluorometer (405 nm/510 nm, Infinite F500, Tecan, Männedorf, Switzerland).

[1] = human, in vivo; cited from earlier work

| Molecule | degradation of ectopically-expressed Mcl-1 (Mcl-1; HeLa UNC5B cells constitutively expressing Mcl-1, 18 hours) | Mcl-1 protein levels / degradation triggered by UNC5B (Mcl-1; endogenous Mcl-1, BTZ 1 μM, QVD 10 µM, 16 hours) | UNC5B-induced caspase-3 activation (caspase-3) | safety profile [1] |
| --- | --- | --- | --- | --- |
| CC(C)C[C@H](NC(=O)[C@H](Cc1ccccc1)NC(=O)c1cnccn1)B(O)O [bortezomib] | restrained the degradation | increased but similar Mcl-1 protein levels in both untreated and doxycycline-treated cells | suppressed |  |
| B1 |  |  |  | extremely good safety profile |
